Experimental data as given in patent publication US20260098053A1, “COMPOSITIONS AND METHODS FOR TREATING CNS DISORDERS” (SAGE THERAPEUTICS, INC., priority 2019, published 2026).

Target: [35S]-TBPS binding, rat brain cortical membranes
Experiment: Steroid inhibition of [35S]-TBPS binding
Details: Table 4, 3 nM [35S]-TBPS, in the presence of 5 mM GABA, read-out: TBPS IC50
Procedure: [35S]-t-Butylbicyclophosphorothionate (TBPS) binding assays using rat brain cortical membranes in the presence of 5 mM GABA has been described (Gee et al, J. Pharmacol. Exp. Ther. 1987, 241, 346-353; Hawkinson et al, Mol. Pharmacol. 1994, 46, 977-985; Lewin, A. H et al., Mol. Pharmacol. 1989, 35, 189-194).
Briefly, cortices are rapidly removed following decapitation of carbon dioxide-anesthetized Sprague-Dawley rats (200-250 g). The cortices are homogenized in 10 volumes of ice-cold 0.32 M sucrose using a glass/teflon homogenizer and centrifuged at 1500×g for 10 min at 4° C. The resultant supernatants are centrifuged at 10,000×g for 20 min at 4° C. to obtain the P2 pellets. The P2 pellets are resuspended in 200 mM NaCl/50 mM Na—K phosphate pH 7.4 buffer and centrifuged at 10,000×g for 10 min at 4° C. This washing procedure is repeated twice and the pellets are resuspended in 10 volumes of buffer. Aliquots ([…]) of the membrane suspensions are incubated with 3 nM [^35S]-TBPS and […] aliquots of test drug dissolved in dimethyl sulfoxide (DMSO) (final 0.5%) in the presence of 5 mM GABA. The incubation is brought to a final volume of 1.0 mL with buffer. Nonspecific binding is determined in the presence of […] and ranged from 15 to 25%. Following a 90 min incubation at room temp, the assays are terminated by filtration through glass fiber filters (Schleicher and Schuell No. 32) using a cell harvester (Brandel) and rinsed three times with ice-cold buffer. Filter bound radioactivity is measured by liquid scintillation spectrometry. Non-linear curve fitting of the overall data for each drug averaged for each concentration is done using Prism (GraphPad). […] The concentration of test compound producing 50% inhibition (IC50) of specific binding and the maximal extent of inhibition (Imax) are determined for the individual experiments with the same model used for the overall data and then the means±SEM.s of the individual experiments are calculated.
Various compounds are or can be screened to determine their potential as modulators of [^35S]-TBPS binding in vitro. These assays are or can be performed in accordance with the above

Compound | IC50 [nM]
CC(=O)[C@H]1CCCC[C@H]2[C@@H]3CC[C@@H]4C[C@](C)(O)CCC[C@]4(C)[C@H]3CC[C@]12C [Example 59, 1-((1S,5aS,5bR,7aR,9R,12aS,12bS,14aS)-9-hydroxy-9,12a,14a-trimethylicosahydrodicyclohepta[a,f]naphthalen-1-yl)ethanone] | 100 to 1000
COC[C@]1(O)CC[C@@H]2CC[C@@H]3[C@H](CC[C@]4(C)[C@@H](C(=O)Cn5cc(C#N)cn5)CCC[C@@H]34)[C@@]2(C)CC1 [Example 56, 1-(2-((1S,4aS,4bR,6aS,9S,11aS,11bS,13aS)-9-hydroxy-9-(methoxymethyl)-11a,13a-dimethyloctadecahydro-1H-cyclohepta[a]phenanthren-1-yl)-2-oxoethyl)-1H-pyrazole-4-carbonitrile] | 100 to 1000
C[C@]1(O)CC[C@H]2CC[C@@H]3[C@H](CC[C@]4(C)[C@@H](C(=O)Cn5cc(C#N)cn5)CCC[C@@H]34)[C@@]2(C)CC1 [Example 52, 1-(2-((1S,4aS,4bR,6aR,9S,11aS,11bS,13aS)-9-hydroxy-9,11a,13a-trimethyloctadecahydro-1H-cyclohepta[a]phenanthren-1-yl)-2-oxoethyl)-1H-pyrazole-4-carbonitrile] | 100 to 1000
CC[C@]12CC[C@@](C)(O)C[C@H]1CC[C@H]1[C@@H]3CCCC[C@@H](C(=O)Cn4cc(C#N)cn4)[C@@]3(C)CC[C@@H]12 [Example 21] | 100 to 1000
C[C@@]1(O)CCC[C@@]2(C)[C@H](CC[C@@H]3[C@@H]2CC[C@]2(C)[C@@H](C(=O)CCn4cc(C#N)cn4)CCC[C@@H]32)C1 [Example 18, 1-(3-((1S,4aS,4bR,6aR,8R,11aS,11bS,13aS)-8-hydroxy-8,11a,13a-trimethyloctadecahydro-1H-cyclohepta[a]phenanthren-1-yl)-3-oxopropyl)-1H-pyrazole-4-carbonitrile] | < 100
CC[C@]12CC[C@H]3[C@@H](CC=C4CC[C@](C)(O)CC[C@@]43C)[C@@H]1CC[C@@H]2C(C)=O [Example 34, 1-((1S,3aS,3bS,8S,10aR,10bS,12aS)-12a-ethyl-8-hydroxy-8,10a-dimethyl-1,2,3,3a,3b,4,6,7,8,9,10,10a,10b,11,12,12a-hexadecahydrocyclohepta[a]cyclopenta[f]naphthalen-1-yl)ethanone] | < 100
CC[C@]1(O)CC[C@H]2CC[C@@H]3[C@H](CC[C@]4(C)[C@@H](C(=O)Cn5cc(C#N)cn5)CCC[C@@H]34)[C@H]2CC1 [Example 50] | 100 to 1000
C[C@@]1(O)CCC[C@@]2(C)[C@H](CC[C@@H]3[C@@H]2CC[C@]2(C)[C@H](C(=O)Cn4cc(C#N)cn4)CCC[C@@H]32)C1 [Example 17, 1-(2-((1R,4aS,4bR,6aR,8R,11aS,11bS,13aS)-8-hydroxy-8,11a,13a-trimethyloctadecahydro-1H-cyclohepta[a]phenanthren-1-yl)-2-oxoethyl)-1H-pyrazole-4-carbonitrile] | > 1000
Cc1nnn(CC(=O)[C@H]2CCC[C@H]3[C@@H]4CC[C@@H]5C[C@](C)(O)CCC[C@@H]5[C@H]4CC[C@]23C)n1 [Example 11, 1-((1S,4aS,4bR,6aR,8R,11aS,11bR,13aS)-8-hydroxy-8,13a-dimethyloctadecahydro-1H-cyclohepta[a]phenanthren-1-yl)-2-(5-methyl-2H-tetrazol-2-yl)ethan-1-one] | < 100
CC[C@]12CC[C@@](C)(O)C[C@H]1CC[C@H]1[C@@H]3CCCC[C@@H](C(C)=O)[C@@]3(C)CC[C@@H]12 [Example 23, 1-((2R,4aS,4bS,6aS,7R,11aS,11bS,13aR)-4a-ethyl-2-hydroxy-2,6a-dimethyloctadecahydro-1H-cyclohepta[a]phenanthren-7-yl)ethanone] | 100 to 1000
COC[C@]1(O)CC[C@H]2CC[C@@H]3[C@H](CC[C@]4(C)[C@@H](C(=O)Cn5cc(C#N)cn5)CCC[C@@H]34)[C@H]2CC1 [Example 46, 1-(2-((1S,4aS,4bR,6aR,9S,11aS,11bR,13aS)-9-hydroxy-9-(methoxymethyl)-13a-methyloctadecahydro-1H-cyclohepta[a]phenanthren-1-yl)-2-oxoethyl)-1H-pyrazole-4-carbonitrile] | 100 to 1000
CC(=O)[C@H]1CCC[C@H]2[C@@H]3CC[C@@H]4C[C@](C)(O)CCC[C@@H]4[C@H]3CC[C@]12C [Example 9, 1-((1S,4aS,4bR,6aR,8R,11aS,11bR,13aS)-8-hydroxy-8,13a-dimethyloctadecahydro-1H-cyclohepta[a]phenanthren-1-yl)ethan-1-one] | < 100
CC[C@]12CC[C@H]3[C@@H](CC[C@@H]4CC[C@@](O)(COC)CC[C@@H]43)[C@@H]1CC[C@@H]2C(=O)Cn1cc(C#N)cn1 [Example 31, 1-(2-((1S,3aS,3bR,5aR,8S,10aS,10bR,12aS)-12a-ethyl-8-hydroxy-8-(methoxymethyl)octadecahydrocyclohepta[a]cyclopenta[f]naphthalen-1-yl)-2-oxoethyl)-1H-pyrazole-4-carbonitrile] | 100 to 1000
CC[C@@]1(O)CCC[C@@]2(C)[C@H](CC[C@@H]3[C@@H]2CC[C@]2(C)[C@H](C(=O)Cn4cc(C#N)cn4)CCC[C@@H]32)C1 [Example 39, 1-(2-((1R,4aS,4bR,6aR,8R,11aS,11bS,13aS)-8-ethyl-8-hydroxy-11a,13a-dimethyloctadecahydro-1H-cyclohepta[a]phenanthren-1-yl)-2-oxoethyl)-1H-pyrazole-4-carbonitrile] | > 1000
CC(=O)[C@H]1CCC[C@H]2[C@@H]3CC[C@@H]4CC[C@](C)(O)CC[C@]4(C)[C@H]3CC[C@]12C [Example 53, 1-((1S,4aS,4bR,6aR,9S,11aS,11bS,13aS)-9-hydroxy-9,11a,13a-trimethyloctadecahydro-1H-cyclohepta[a]phenanthren-1-yl)ethanone] | > 1000
CC[C@]1(O)CC[C@H]2CC[C@@H]3[C@H](CC[C@]4(C)[C@H](C(C)=O)CCC[C@@H]34)[C@H]2CC1 [Example 47, 1-((1R,4aS,4bR,6aR,9S,11aS,11bR,13aS)-9-ethyl-9-hydroxy-13a-methyloctadecahydro-1H-cyclohepta[a]phenanthren-1-yl)ethanone] | > 1000
C[C@@]1(O)CCC[C@@]2(C)[C@@H](CC[C@@H]3[C@@H]2CC[C@]2(C)[C@@H](C(=O)CCn4cc(C#N)cn4)CCC[C@@H]32)C1 [Example 41, 1-(3-((1S,4aS,4bR,6aS,8R,11aS,11bS,13aS)-8-hydroxy-8,11a,13a-trimethyloctadecahydro-1H-cyclohepta[a]phenanthren-1-yl)-3-oxopropyl)-1H-pyrazole-4-carbonitrile] | < 100

Same assay, conditions: Table 5, 3 nM [35S]-TBPS, in the presence of 5 mM GABA, read-out: TBPS IC50

Compound | IC50 [nM]
CC(=O)[C@@H]1CC[C@H]2[C@@H]3CC[C@@H]4C[C@](C)(O)CC[C@@H]4[C@H]3CC[C@@H]21 [Example 67, 1-((3R,5R,8R,9R,10S,13S,14S,17R)-3-hydroxy-3-methylhexadecahydro-1H-cyclopenta[a]phenanthren-17-yl)ethan-1-one] | > 1000
C[C@@]1(O)CC[C@H]2[C@H](CC[C@@H]3[C@@H]2CC[C@H]2[C@H]3CC[C@@H]2C(=O)Cn2cc(C#N)cn2)C1 [Example 68, 1-(2-((3R,5R,8R,9R,10S,13S,14S,17S)-3-hydroxy-3-methylhexadecahydro-1H-cyclopenta[a]phenanthren-17-yl)-2-oxoethyl)-1H-pyrazole-4-carbonitrile] | < 100

Same assay, conditions: Table 6, 3 nM [35S]-TBPS, in the presence of 5 mM GABA, read-out: IC50

Compound | IC50 [nM]
CC[C@]12CC[C@H]3[C@@H](CC[C@@H]4C[C@](C)(O)CC[C@@]43C3CC3)[C@@H]1CC[C@@H]2C(C)=O [Example 88, 1-((3R,5R,8S,9S,10R,13S,14S,17S)-10-cyclopropyl-13-ethyl-3-hydroxy-3-methylhexadecahydro-1H-cyclopenta[a]phenanthren-17-yl)ethanone] | < 100
C[C@@]1(O)CC[C@@]2(C3CC3)[C@H](CC[C@H]3[C@@H]4CCC[C@H](C(=O)Cn5cc(C#N)cn5)[C@@]4(C)CC[C@@H]32)C1 [Example 87, 1-(2-((1S,4aS,4bS,6aR,8R,10aR,10bS,12aS)-10a-cyclopropyl-8-hydroxy-8,12a-dimethyloctadecahydrochrysen-1-yl)-2-oxoethyl)-1H-pyrazole-4-carbonitrile] | < 100
